According to ChEMBL document CHEMBL1201862, “PubChem BioAssay data set” (2004):
Active and inactive are the calls of the source. Rule as the data show it, for most assays here: actives have a measured EC50 and inactives only a lower limit.

Experiments:
[1] = tested on: Streptococcus sp. 'group A'; assay: Streptococcus pyogenes SK(-)GAS viability under kanamycin – luminescence, BacTiterGlo, confirmation, counter-screen for streptokinase expression inhibitor project, dose response (AID 1900); assay type: functional, organism-based
[2] = Luminescence Cell-Based Dose Retest to Confirm Inhibitors of Cancer Stem Cells. [Related pubchem assays (depositor defined):AID2717, AID2721]; assay type: functional; settings: Homo sapiens
[3] = tested on: Streptococcus; assay: GAS UMAA2166 growth inhibition – luminescence, BacTiterGlo, counter-screen for streptokinase expression inhibitor project, dose response (AID 1915); assay type: functional, organism-based;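 also: potency for reduction of bacterial viability or growth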
[4] = target: Heat shock protein HSP 90-alpha (Homo sapiens, UniProt P07900); assay type: functional, organism-based
[5] = target: T1, Streptokinase A (Streptococcus pyogenes serotype M1, UniProt P10520); assay: viability-normalized secreted streptokinase activity reduction – plasminogen activation absorbance, OD405, dose response (AID 1914); assay type: functional, Streptococcus pyogenes M1 GAS;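 also: secreted streptokinase activity via plasminogen activation per viability signal from cell pellet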
T1 sequence (P10520 whole entry): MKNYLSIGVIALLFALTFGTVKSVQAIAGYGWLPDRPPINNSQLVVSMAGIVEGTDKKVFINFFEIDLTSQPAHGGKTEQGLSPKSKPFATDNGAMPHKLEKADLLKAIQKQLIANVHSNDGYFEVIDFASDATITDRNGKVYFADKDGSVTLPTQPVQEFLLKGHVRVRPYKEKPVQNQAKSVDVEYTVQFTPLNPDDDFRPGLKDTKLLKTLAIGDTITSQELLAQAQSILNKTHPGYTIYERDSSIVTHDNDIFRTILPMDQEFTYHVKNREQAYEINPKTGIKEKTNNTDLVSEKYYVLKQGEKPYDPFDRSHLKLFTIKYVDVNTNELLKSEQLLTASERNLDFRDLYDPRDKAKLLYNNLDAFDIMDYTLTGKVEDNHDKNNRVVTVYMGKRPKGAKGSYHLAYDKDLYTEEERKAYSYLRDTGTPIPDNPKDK

[6] = Luminescence Cell-Based Dose Response HTS to Identify Inhibitors of 5'UTR Stem-Loop Driven Prion Protein mRNA Translation in H4 Neuroglioblastoma Cells. [Related pubchem assays: 1827 (Project Summary), 1813 (Primary HTS)]; assay type: functional
[7] = target: T2, Protein RecA (Mycobacterium tuberculosis, UniProt P9WHJ3); assay: Fluorescence Cell-Free Homogeneous Dose Retest to Identify Inhibitors of RecA-Intein Splicing Activity. [Related pubchem assays (depositor defined):AID2097, AID2223, AID489010, AID492950]; assay type: functional
T2 sequence (P9WHJ3 whole entry): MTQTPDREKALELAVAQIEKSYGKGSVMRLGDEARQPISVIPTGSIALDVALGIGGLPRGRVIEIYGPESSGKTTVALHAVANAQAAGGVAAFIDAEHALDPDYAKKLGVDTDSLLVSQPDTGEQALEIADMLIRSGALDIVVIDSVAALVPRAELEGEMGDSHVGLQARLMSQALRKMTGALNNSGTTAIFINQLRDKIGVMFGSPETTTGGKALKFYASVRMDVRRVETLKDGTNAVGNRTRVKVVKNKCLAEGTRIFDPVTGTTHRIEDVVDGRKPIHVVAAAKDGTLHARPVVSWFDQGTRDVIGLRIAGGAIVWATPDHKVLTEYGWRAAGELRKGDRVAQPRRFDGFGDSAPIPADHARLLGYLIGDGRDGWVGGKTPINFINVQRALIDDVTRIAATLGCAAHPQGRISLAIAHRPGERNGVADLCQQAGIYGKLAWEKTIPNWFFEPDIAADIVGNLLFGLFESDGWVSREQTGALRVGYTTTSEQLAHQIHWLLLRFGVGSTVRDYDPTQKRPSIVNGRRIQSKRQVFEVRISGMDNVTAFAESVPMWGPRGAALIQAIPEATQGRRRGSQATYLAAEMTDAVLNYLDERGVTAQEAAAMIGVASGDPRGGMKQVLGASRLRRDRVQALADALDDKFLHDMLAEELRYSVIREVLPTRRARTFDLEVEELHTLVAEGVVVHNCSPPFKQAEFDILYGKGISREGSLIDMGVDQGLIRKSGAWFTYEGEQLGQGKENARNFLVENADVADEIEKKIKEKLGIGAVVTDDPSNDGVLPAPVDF

[8] = alpha-synuclein stem-loop luciferase translation blockers – H4 neuroglioma cells, luminescence, confirmation (AID 1988); assay type: functional, cell-based
[9] = tested on: INS1; assay: INS-1E survival protection against cytokine death – cell-based, luminescence, retest, dose response (AID 449756); assay type: functional; settings: Rattus norvegicus;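 also: cell death triggered by IL-1 beta plus TNF-alpha plus IFN-gamma mixture; protective hits raise ATP signal compared with cytokine alone wells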
[10] = target: T3, Replicative DNA helicase DnaB (Mycobacterium tuberculosis, UniProt P9WMR3); assay: DnaB intein splicing inhibitors, dose response, biochemical, cell-free fluorescence (AID 449749); assay type: functional
T3 sequence (P9WMR3 whole entry): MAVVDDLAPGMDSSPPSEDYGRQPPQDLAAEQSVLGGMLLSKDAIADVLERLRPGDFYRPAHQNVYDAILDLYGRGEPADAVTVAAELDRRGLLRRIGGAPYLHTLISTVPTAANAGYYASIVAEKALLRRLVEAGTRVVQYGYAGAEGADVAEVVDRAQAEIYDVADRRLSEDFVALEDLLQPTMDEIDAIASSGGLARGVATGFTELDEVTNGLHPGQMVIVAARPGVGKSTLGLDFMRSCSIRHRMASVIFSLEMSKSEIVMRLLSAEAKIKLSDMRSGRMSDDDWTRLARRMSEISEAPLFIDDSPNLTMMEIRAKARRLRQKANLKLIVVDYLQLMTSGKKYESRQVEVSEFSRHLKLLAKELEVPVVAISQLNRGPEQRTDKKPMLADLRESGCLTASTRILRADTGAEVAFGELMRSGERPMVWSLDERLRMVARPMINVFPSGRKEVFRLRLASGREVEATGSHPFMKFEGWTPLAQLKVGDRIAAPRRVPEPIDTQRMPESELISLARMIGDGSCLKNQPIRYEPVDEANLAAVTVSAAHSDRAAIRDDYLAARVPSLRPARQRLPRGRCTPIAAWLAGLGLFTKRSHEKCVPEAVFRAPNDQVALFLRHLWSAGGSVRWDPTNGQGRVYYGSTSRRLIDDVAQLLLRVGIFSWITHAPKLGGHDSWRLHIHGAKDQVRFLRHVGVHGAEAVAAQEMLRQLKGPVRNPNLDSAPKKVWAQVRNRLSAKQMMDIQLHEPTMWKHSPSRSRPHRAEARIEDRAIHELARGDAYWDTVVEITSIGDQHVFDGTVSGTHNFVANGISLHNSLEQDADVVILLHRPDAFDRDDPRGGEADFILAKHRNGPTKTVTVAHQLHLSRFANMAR

[11] = luciferase reporter signal suppression in cells – H4 neuroglioma cells, luminescence, dose response (AID 1990); assay type: functional, cell-based
[12] = P. falciparum Dd2 growth inhibitors, dose response, SYBR Green, cherry-picked samples (AID 1159567); assay type: functional, cell-based
[13] = target: T4, RNA-binding protein pos-1 (Caenorhabditis elegans, UniProt G5EF15); assay: disruptors of C. elegans POS-1 RNA interaction – biochemical, fluorescence polarization, dose response (AID 1964);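 also: purified POS-1 fused to maltose binding protein made in E. coli; potency of compounds blocking POS-1 binding to fluorescent RNA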
T4 sequence (G5EF15 whole entry): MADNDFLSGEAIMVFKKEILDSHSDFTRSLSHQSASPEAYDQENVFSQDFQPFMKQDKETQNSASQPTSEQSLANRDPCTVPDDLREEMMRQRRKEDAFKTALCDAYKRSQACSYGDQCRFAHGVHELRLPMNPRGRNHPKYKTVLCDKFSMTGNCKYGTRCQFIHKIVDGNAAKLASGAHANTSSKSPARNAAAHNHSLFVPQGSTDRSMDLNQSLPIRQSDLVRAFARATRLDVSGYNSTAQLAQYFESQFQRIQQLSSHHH

[14] = target: T5, Zinc finger protein mex-5 (Caenorhabditis elegans, UniProt Q9XUB2); assay: potency of MEX-5 RNA-binding blockers – biochemical, C. elegans, fluorescence polarization, dose response (AID 1960)
T5 sequence (Q9XUB2 whole entry): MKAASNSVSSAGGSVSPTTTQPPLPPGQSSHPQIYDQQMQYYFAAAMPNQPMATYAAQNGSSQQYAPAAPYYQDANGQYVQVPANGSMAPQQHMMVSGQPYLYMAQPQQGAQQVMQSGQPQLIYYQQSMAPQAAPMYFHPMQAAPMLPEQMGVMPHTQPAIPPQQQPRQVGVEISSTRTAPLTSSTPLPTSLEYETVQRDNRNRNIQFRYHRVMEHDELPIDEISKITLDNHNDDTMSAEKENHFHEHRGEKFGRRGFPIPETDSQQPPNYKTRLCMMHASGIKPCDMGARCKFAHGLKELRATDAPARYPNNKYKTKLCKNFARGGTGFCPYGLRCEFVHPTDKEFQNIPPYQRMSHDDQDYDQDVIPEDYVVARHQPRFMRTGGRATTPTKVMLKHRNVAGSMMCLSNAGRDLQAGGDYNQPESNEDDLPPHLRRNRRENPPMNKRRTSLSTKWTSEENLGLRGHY

[15] = viability of uninfected HEp-2 cells – cell-based, HTS, cytotoxicity control for RSV inhibitor project, dose response (AID 2410); assay type: functional; settings: human respiratory syncytial virus
[16] = NIH3T3 cell viability loss – ATP luminescence, mouse fibroblasts, counter-screen, dose response (AID 2010); assay type: functional, cell-based;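 also: cells exposed to compound for about 90 hours before reading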
[17] = Trypanosoma cruzi growth suppression in host cells – NIH3T3 host cells, beta-gal luminescence, confirmation (AID 2044); assay type: functional, cell-based;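 also: intracellular parasites grown in NIH/3T3 mouse fibroblasts as host cells; luminescent beta-galactosidase reporter signal from transgenic T. cruzi replicating inside host cells; inhibitors lower the luminescence signal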

With `CC(C)(C)c1cc(NCc2ccccn2)n2ncc(-c3ccccc3)c2n1` the EC50 [1] was 0.722 µM (active), the AC50 [2] was 6.82 µM (active) and the EC50 [3] was 13.8 µM (active). For the same compound, the AC50 [4] was 1.63 µM (active) and the EC50 [5] was 30 µM (active).

With `O=Nc1c(O)c2ccccc2c2ccccc12` the EC50 [6] was > 120 µM (not active), the EC50 [7] was 5.3 µM (active) and the EC50 [1] was 1.68 µM (active). For the same compound, the EC50 [8] was > 120 µM (not active), the AC50 [9] was 7.86 µM (active) and the EC50 [3] was 10.8 µM (active). The AC50 [10] was 4.39 µM (active), the AC50 [4] was 1.03 µM (active) and the EC50 [5] was 7.11 µM (active). The EC50 [11] was 8.1 µM (active).

For `COc1ccc2c3c([nH]c2c1)[C@@H](CO)N(Cc1nccs1)CC31CCN(Cc2nccs2)CC1`, the AC50 [12] was 4.94 µM (active).

For `COc1ccc(/N=C/c2cc3c(cc2O)OC(N)=C(C#N)C3c2ccccc2)cc1` (configuration not stated), the EC50 [13] was > 300 µM (not active), the EC50 [14] was > 300 µM (not active) and the CC50 [15] was 8.02 µM (active).

For `COc1cc2c(cc1OC)C(=O)N1[C@H]3c4ccccc4OC[C@@H]3[C@H](c3ccccc3)[C@]1(C)C(=O)N2`, the AC50 [4] was 9.07 µM (active).

For `COc1ccc(S(=O)(=O)C(C#N)c2nc3ccccc3nc2N2CCC(C)CC2)cc1` (configuration not stated), the EC50 [13] was 6.4 µM (active) and the EC50 [14] was 8.74 µM (active).

With `C[C@H](CO)N1C[C@H](C)[C@H](CN(C)S(=O)(=O)c2cccs2)Oc2ccc(NC(=O)Cc3cn(C)c4ccccc34)cc2C1=O` the AC50 [12] was 5.02 µM (active).

In the case of `Cc1cccn2c(=O)c3cc(C(=O)NC4CCCCC4)c(=N)n(Cc4ccccc4)c3nc12`, the EC50 [13] is reported as 25.9 µM (active), the EC50 [14] is reported as 8.47 µM (active) and the EC50 [16] is reported as > 60 µM (not active). The EC50 [17] was 1.63 µM (active).
